These results are taken from PMC12266748, “A Xanthine Derivative With Novel Heat Shock Protein 90‐Alpha Inhibitory and Senolytic Properties” (Aging Cell, 2025).

“Also recorded” adds a separate entry of the source.

Data set [1] is described as follows: Phase I stability in human liver microsomes. It counts as in vitro ADME. The note with it: 1 µM, 0.5 mg/mL microsomes. As to the method:
APHAD S.r.l (Buccinasco, MI, Italy) performed all evaluations. Detailed protocols are reported in the extended methods section.
Phase I stability in human and mouse liver microsomes. The metabolic stability of K4 and K5 was evaluated after incubation with mouse and human liver microsomes. Briefly, the 2 compounds were dissolved in DMSO and pre-incubated, at the final concentration of 1µM, for 10 min at 37°C in potassium phosphate buffer 50 mM, pH 7.4, 3 mM MgCl2, with mouse and human liver microsomes (Sigma) at the final concentration of 0.5 mg/mL. After the pre-incubation period, reactions were started by adding the cofactors mixture (NADP, Glc6P, Glc6P-DH in 2% Sodium bicarbonate); samples were taken at time 0, 10, 20, 30, and 60 min, and added to ACN with Verapamil 0.1 µM as Internal Standard (IS) to stop the reaction. After centrifugation, the supernatants were analyzed using LC-MS/MS. A control sample without cofactors was added to check the stability of test compounds in the matrix after 60 min. 7-Ethoxycoumarin (7-EC) and propranolol were added as positive reference standards. Samples were analyzed on Acquity UPLC (Waters) coupled with an API 3200 Triple Quadrupole ABSciex. […] The percent of the area of the test compound remaining at the various incubation times was calculated based on the area of the compound at time 0 min. […]

A further data set concerns the target T1, TRAP1 (Homo sapiens, UniProt Q12931).
T1 sequence (Q12931 60-704): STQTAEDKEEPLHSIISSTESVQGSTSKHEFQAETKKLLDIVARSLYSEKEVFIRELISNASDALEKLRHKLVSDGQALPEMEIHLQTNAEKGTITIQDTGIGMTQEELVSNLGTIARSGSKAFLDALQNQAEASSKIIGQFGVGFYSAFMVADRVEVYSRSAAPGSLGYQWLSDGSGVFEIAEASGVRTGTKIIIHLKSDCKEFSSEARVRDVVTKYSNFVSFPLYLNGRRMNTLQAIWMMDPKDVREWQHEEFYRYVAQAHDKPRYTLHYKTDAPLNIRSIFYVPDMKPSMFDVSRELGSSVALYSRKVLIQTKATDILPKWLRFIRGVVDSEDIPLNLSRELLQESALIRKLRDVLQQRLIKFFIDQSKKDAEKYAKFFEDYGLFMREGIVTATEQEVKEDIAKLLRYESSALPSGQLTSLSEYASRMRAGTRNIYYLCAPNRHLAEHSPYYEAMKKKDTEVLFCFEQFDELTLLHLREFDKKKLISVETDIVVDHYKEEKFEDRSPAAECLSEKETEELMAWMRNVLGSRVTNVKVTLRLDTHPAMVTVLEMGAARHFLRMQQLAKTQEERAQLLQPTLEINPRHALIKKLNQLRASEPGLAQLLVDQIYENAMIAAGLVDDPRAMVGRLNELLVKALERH
Put plainly: Cellular thermal shift assay (CETSA) on cellular lysates, TRAP1. Particulars: 46°C, compound 0.5 mM.

In a further data set the test system is IMR90 cells. Nature of the data set: In vitro screening of the 14 in silico-selected compounds, surviving cell count, proliferating vs senescent IMR90. It is filed as cell-based, Homo sapiens. The note with it: 48 h; for effect on non-senescent IMR90 cells: PD15-PD17, 1 μM; for senolytic activity on senescent IMR90 cells: PD19-PD21, 1 μM. From the text:
IMR90 and WI38 lung fibroblasts were purchased from ECACC‐Merck. Human bone marrow (BM)‐derived mesenchymal stromal cells (MSCs) were purchased from Lonza. Human umbilical vein endothelial cells (HUVECs) are primary cells obtained from a pool of donors purchased from Clonetics (Lonza). Murine ear fibroblasts (MearFs) were obtained from C57BL/6J mice maintained in the INRCA “Specific Pathogen Free” (SPF) animal facility. MCF7 breast cancer cells were purchased from ATCC. For dose–response curves, IMR90 and WI38 were induced to senescence through replicative passages; MSCs, HUVECs, and MearFs senescence was induced with Doxorubicin; MCF7 senescence was induced with 4‐Hydroxytamoxifen (Lee et al. [2014]). The EC50 was calculated using GraphPad Prism 10 software. All treatment specifications are reported in the extended section.
Cell culture and treatment. IMR90 cells (Homo sapiens, fetal lung, fibroblast) and WI38 cells (Homo sapiens, fetal lung, fibroblast) were purchased from ECACC-Merck (Merck, Darmstadt, Germany) and cultured in MEM medium (Euroclone, Milano, Italy) supplemented with 1% L-Glutamine (Euroclone, Milano, Italy), 1% Penicillin-Streptomycin (Euroclone, Milano, Italy), and 10% Fetal Bovine Serum (FBS, Euroclone, Milano, Italy), at 37°C, 5% CO2. IMR90 cells with a population doubling (PD) from PD15 to PD23 were used; cells were considered incrementally senescent from passage PD19 to passage PD23. WI38 cells were used from PD26 to PD53. Cells were considered incrementally senescent from passage PD49 to passage PD53. For the compounds in vitro screening, IMR90 cells with passages from PD15 to PD23 were tested at increasing concentrations of 0.5 μM, 1 μM, 10 μM, and 25 μM over 24 and 48 h to evaluate the compounds' efficacy and cytotoxicity compared to the Vehicle (DMSO ≤ 0.1%). Cells were counted manually, in triplicate, using Trypan blue reagent (Euroclone) and disposable Bürker chambers. […] K5 dose-response proliferation curves were performed with compound K5 (Molport, SIA, Riga, Latvia) in concentrations 0.1, 0.5, 1, 5, 10, 50, 100, and 200 μM for 48 h. Cells were counted using a Trypan blue reagent and EVAplus cell counter. The EC50s were calculated by analyzing the data using GraphPad Prism 10 software.

The next data set addresses GRP94 (Homo sapiens, UniProt P14625). Nature of the data set: Cellular thermal shift assay (CETSA) on cellular lysates, GRP94. Particulars: 46°C, compound 0.5 mM.
A further data set deals with HSP90β (Homo sapiens, UniProt P08238). Nature of the data set: Cellular thermal shift assay (CETSA) on cellular lysates, HSP90β. The note with it: 46°C, compound 0.5 mM.
Chain of HSP90β (P08238 whole entry): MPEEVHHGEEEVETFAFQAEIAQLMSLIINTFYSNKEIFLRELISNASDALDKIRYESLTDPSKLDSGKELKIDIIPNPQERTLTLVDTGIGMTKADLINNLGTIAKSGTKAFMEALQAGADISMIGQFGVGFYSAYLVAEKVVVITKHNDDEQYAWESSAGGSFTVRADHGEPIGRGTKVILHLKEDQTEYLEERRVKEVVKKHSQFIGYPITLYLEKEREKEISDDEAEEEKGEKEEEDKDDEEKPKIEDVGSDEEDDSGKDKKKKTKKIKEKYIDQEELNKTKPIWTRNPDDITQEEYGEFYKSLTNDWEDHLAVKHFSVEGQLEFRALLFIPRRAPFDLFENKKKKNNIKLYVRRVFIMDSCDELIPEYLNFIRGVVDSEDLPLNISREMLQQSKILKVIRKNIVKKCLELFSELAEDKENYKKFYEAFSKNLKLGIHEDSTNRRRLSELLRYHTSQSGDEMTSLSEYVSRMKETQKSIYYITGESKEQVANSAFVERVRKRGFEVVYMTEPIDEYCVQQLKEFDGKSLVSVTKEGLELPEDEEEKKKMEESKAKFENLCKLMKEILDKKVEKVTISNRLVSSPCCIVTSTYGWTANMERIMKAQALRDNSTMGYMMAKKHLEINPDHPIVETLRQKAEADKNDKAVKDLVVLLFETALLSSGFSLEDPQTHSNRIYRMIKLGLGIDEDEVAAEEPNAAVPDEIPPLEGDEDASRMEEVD

Chain of GRP94 (P14625 22-803): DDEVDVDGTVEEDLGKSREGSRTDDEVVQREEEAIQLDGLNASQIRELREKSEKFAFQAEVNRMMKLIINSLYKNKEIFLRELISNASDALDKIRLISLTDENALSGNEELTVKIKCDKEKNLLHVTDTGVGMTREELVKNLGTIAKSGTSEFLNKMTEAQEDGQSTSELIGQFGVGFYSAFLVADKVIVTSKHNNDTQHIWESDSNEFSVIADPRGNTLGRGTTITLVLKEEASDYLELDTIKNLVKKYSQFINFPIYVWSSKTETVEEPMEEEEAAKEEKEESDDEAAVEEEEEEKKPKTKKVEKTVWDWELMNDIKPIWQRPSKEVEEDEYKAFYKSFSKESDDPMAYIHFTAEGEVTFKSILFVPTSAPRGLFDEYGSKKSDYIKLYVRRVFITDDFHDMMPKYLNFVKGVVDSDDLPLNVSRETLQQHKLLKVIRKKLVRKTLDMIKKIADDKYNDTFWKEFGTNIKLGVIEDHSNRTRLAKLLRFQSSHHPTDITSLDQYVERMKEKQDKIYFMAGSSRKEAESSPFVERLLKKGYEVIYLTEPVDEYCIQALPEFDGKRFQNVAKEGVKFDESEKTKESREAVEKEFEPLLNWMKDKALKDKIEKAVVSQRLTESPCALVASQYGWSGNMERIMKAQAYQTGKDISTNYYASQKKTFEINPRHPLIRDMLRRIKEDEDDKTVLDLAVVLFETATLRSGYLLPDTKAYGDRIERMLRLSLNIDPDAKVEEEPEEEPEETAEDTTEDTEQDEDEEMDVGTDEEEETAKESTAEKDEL
Experimental for GRP94: (§1) Cellular Thermal Shift Assay (CETSA). […] Briefly, the cellular extract was lysed in RIPA buffer (10 mM Tris-HCl pH 7.4, 250 mM NaCl, 1% NP40/IGEPAL, 1% DOC, 0.01% SDS, 0.01% Glycerol, supplemented with protease/phosphatase inhibitor, PI/PhI mix and 2 mM DTT) and protein concentration was determined by a BCA kit (Pierce, Life Technologies, TFS, Waltham, MA, USA). Samples were homogenized by 3 cycles of freeze-thawing using liquid nitrogen and centrifuged at 13000 rpm at 4 °C for 30 min to separate the soluble fraction from the debris.
(§2) Following the supplier's recommendations, samples were loaded into the proper cartridge (12- 230 kDa Wes/Jess Separation Modules, ProteinSimple, Biotechne, Minneapolis, MN, USA). HSP90α (1:50, MsMAb, Abcam), HSP90β (1:50, RbMAb, Abcam), GRP94 (1:50, RbMAb, Abcam), TRAP1 (1:50, MsMAb, Abcam), α-Tubulin (1:500, MsMAb, Abcam), and β-Actin (1:500, RbMAb, Abcam) were used as primary antibodies. Secondary antibodies were Anti-Mouse Secondary HRP and Anti-Rabbit Secondary HRP (ProteinSimple, Biotechne, Minneapolis, MN, USA).
Experimental for HSP90β: as §1, §2
Experimental for TRAP1: as §1, §2

Turning to `CC(C)(C)S(=O)(=O)C/C(N)=N/OS(=O)(=O)c1ccc(F)cc1F` [Compound K4, (Z)-N'-[(2,4-difluorobenzenesulfonyl)oxy]-2-(2-methylpropane-2-sulfonyl)ethanimidamide], the “metabolic stability in human microsomes” value in data set [1] was “stable”. Moreover, the “stabilization of TRAP1 in CETSA” value at TRAP1 is on record as “did not observe a stabilization”. For the same molecule, in the data set with IMR90 cells, the “effect on non-senescent IMR90 cells” value is “robust level of safety” and the “senolytic activity on senescent IMR90 cells” value is recorded as “evident senolytic activity; also recorded: highest senolytic activity”. The “stabilization of GRP94 in CETSA” value on GRP94 is “did not observe a stabilization”. The “stabilization of HSP90β in CETSA” value at HSP90β was “did not observe a stabilization”.
Turning to `Cc1ccccc1-n1c(=O)n(Cc2ccccc2)c(=O)c2[nH]cnc21` [Compound K5, 1-benzyl-3-(2-methylphenyl)-7H-purine-2,6-dione], in data set [1], the “metabolic stability in human microsomes” value is “stable”. Moreover, the “stabilization of TRAP1 in CETSA” value at TRAP1 was “did not observe a stabilization”. Besides, in the data set on IMR90 cells, the “effect on non-senescent IMR90 cells” value is on record as “robust level of safety” and the “senolytic activity on senescent IMR90 cells” value is reported as “evident senolytic activity; also recorded: highest senolytic activity”. Also, the “stabilization of GRP94 in CETSA” value on GRP94 is on record as “did not observe a stabilization”. Moreover, on HSP90β, the “stabilization of HSP90β in CETSA” value is “did not observe a stabilization”.
